Reference: patent US8106055B2, “Substituted amide compounds” (Gruenenthal GmbH, priority 2007, dated 2012)
Read-outs that look alike come from different tables or passages of the source.

Key:
[1] = biological target: T1, bradykinin 1 receptor (B1R) of the rat (Rattus norvegicus, UniProt P97583); experiment: Functional investigation on the rat bradykinin 1 receptor (B1R), Ca2+ FLIPR assay in CHO K1 rB1R cells; assay type: cell-based
T1 construct: expressed in transfected cells; host or cells: CHO K1 cells
T1 sequence (P97583 1-337): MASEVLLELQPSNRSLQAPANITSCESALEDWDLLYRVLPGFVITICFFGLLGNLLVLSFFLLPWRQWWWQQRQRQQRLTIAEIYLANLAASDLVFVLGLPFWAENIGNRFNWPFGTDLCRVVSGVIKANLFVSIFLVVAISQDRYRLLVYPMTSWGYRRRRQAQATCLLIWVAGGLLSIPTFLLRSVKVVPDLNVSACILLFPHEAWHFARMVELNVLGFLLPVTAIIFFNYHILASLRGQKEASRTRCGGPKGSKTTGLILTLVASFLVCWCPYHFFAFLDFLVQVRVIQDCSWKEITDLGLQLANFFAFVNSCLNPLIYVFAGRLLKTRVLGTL
In short: (§1)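 Peak Ca2+-dependent fluorescence in B1R-transfected CHO K1 cells measures antagonism of an EC80 agonist challenge given 10-20 min after compound. Agonist is Lys-Des-Arg9-bradykinin for human, Des-Arg9-bradykinin for rat receptor.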

[2] = biological target: T2, human bradykinin 1 receptor (B1R) (Homo sapiens, UniProt P46663); experiment: Functional investigation on the human bradykinin 1 receptor (B1R), Ca2+ FLIPR assay in CHO K1 hB1R cells; assay type: cell-based
T2 construct: expressed in transfected cells; host or cells: CHO K1 cells
T2 sequence (P46663 1-353): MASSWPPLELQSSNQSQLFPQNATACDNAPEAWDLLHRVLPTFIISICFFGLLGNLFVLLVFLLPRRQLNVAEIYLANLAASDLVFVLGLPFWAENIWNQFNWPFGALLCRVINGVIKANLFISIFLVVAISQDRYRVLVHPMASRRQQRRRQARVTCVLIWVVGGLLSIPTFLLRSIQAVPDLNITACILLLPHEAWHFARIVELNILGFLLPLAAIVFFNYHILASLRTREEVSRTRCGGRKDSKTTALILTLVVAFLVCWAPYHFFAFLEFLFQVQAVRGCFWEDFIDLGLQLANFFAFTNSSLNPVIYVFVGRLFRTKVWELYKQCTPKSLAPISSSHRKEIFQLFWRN
In short: as §1

[3] = CHO-K1, B1R antagonism rat, test substance 10 μM, Ca2+ FLIPR, CHO K1 rB1R cells, read-out: B1R Ant. r [10 μM] % Inhibition
[4] = CHO-K1, B1R antagonism human, test substance 10 μM, Ca2+ FLIPR, CHO K1 hB1R cells, read-out: B1R Ant. h [10 μM] % Inhibition

Row | SMILES | inhibition at 10 µM [1, 3] [%] | inhibition at 10 µM [2, 4] [%] | inhibition at 10 µM ([1]; CHO-K1, read-out: B1R Ant. r [10 μM] % Inhibition) [%] | inhibition at 10 µM ([2]; CHO-K1, read-out: B1R Ant. h [10 μM] % Inhibition) [%]
1 | COc1cc(C)c(S(=O)(=O)N2CCC(OCC(=O)NC3CCC(C(c4cccs4)N(C)C)CC3)CC2)c(C)c1C (centres unmarked) [Example 1, N-(4-((dimethylamino)(thiophen-2-yl)methyl)cyclohexyl)-2-(1-(4-methoxy-2,3,6-trimethylphenylsulfonyl)piperidin-4-yloxy)acetamide] | -5 | 46 |  | 
2 | Cc1ccc(S(=O)(=O)N(C)CCOCC(=O)NCC2CCC(C(c3cccs3)N(C)C)CC2)cc1 (centres unmarked) [Example 4, N-((4-((dimethylamino)(thiophen-2-yl)methyl)cyclohexyl)methyl)-2-(2-(N,4-dimethylphenylsulfonamido)ethoxy)acetamide] | 18 | 2 |  | 
3 | COc1cc(C)c(S(=O)(=O)N2CCC(CCOCC(=O)NC3CCC(C(c4cccs4)N(C)C)CC3)CC2)c(C)c1C (centres unmarked) [Example 5, N-(4-((dimethylamino)(thiophen-2-yl)methyl)cyclohexyl)-2-(2-(1-(4-methoxy-2,3,6-trimethylphenylsulfonyl)piperidin-4-yl)ethoxy)acetamide] | -3 | 24 |  | 
4 | CN(C)C(c1ccccc1)C1CCC(NC(=O)COCCN(C)S(=O)(=O)c2c(Cl)cc(Cl)cc2Cl)CC1 (centres unmarked) [Example 34, N-(4-((dimethylamino)(phenyl)methyl)cyclohexyl)-2-(2-(2,4,6-trichloro-N-methylphenylsulfonamido)ethoxy)acetamide] | 24 | 102 |  | 
5 | COc1cc(C)c(S(=O)(=O)N(C)CCOCC(=O)NCC2CCC(C(c3cccs3)N(C)C)CC2)c(C)c1C (centres unmarked) [Example 35, N-((4-((dimethylamino)(thiophen-2-yl)methyl)cyclohexyl)methyl)-2-(2-(4-methoxy-N,2,3,6-tetramethylphenylsulfonamido)ethoxy)acetamide] | 0 | 50 |  | 
6 | CN(C)C(c1cccs1)C1CCC(CNC(=O)COC2CCN(S(=O)(=O)c3ccccc3)C2)CC1 (centres unmarked) [Example 36, N-((4-((dimethylamino)(thiophen-2-yl)methyl)cyclohexyl)methyl)-2-(1-(phenylsulfonyl)pyrrolidin-3-yloxy)acetamide] | 3 | -11 |  | 
7 | CN(C)C(c1cccs1)C1CCC(CCNC(=O)COCCN(C)S(=O)(=O)c2ccc(Cl)cc2)CC1 (centres unmarked) [Example 37, 2-(2-(4-chloro-N-methylphenylsulfonamido)ethoxy)-N-(2-(4-((dimethylamino)(thiophen-2-yl)methyl)cyclohexyl)ethyl)acetamide] | 21 | 40 |  | 
8 | COc1ccc(S(=O)(=O)N2Cc3ccccc3CC2COCC(=O)NC2CCC(C(c3ccccc3)N(C)C)CC2)cc1 (centres unmarked) [Example 38, N-(4-((dimethylamino)(phenyl)methyl)cyclohexyl)-2-((2-(4-methoxyphenylsulfonyl)-1,2,3,4-tetrahydroisoquinolin-3-yl)methoxy)acetamide] | 46 | 45 |  | 
9 | CN(C)C(c1ccccc1)C1CCC(NC(=O)COC2CCCCC2N(C)S(=O)(=O)c2ccc(Cl)c(Cl)c2)CC1 (centres unmarked) [Example 39, 2-(2-(3,4-dichloro-N-methylphenylsulfonamido)cyclohexyloxy)-N-(4-((dimethylamino)(phenyl)methyl)cyclohexyl)acetamide] | -8 | 89 |  | 
10 | CN(C)C(c1cccc(F)c1)C1CCC(CCNC(=O)COCCN(C)S(=O)(=O)c2c(Cl)cccc2Cl)CC1 (centres unmarked) [Example 41, 2-(2-(2,6-dichloro-N-methylphenylsulfonamido)ethoxy)-N-(2-(4-((dimethylamino)(3-fluorophenyl)methyl)cyclohexyl)ethyl)acetamide] | 54 | 91 |  | 
11 | CN(C)C(c1cccs1)C1CCC(NC(=O)COC2CCCN(S(=O)(=O)c3ccccc3)C2)CC1 (centres unmarked) [Example 42, N-(4-((dimethylamino)(thiophen-2-yl)methyl)cyclohexyl)-2-(1-(phenylsulfonyl)piperidin-3-yloxy)acetamide] |  |  | -17 | -14
12 | COc1cc(C)c(S(=O)(=O)N2CCC(OCC(=O)NC3CCC(C(c4cccs4)N(C)C)CC3)C2)c(C)c1C (centres unmarked) [Example 43, N-(4-((dimethylamino)(thiophen-2-yl)methyl)cyclohexyl)-2-(1-(4-methoxy-2,3,6-trimethylphenylsulfonyl)pyrrolidin-3-yloxy)acetamide] | 21 | 37 |  | 
13 | COc1cc(C)c(S(=O)(=O)N2CCC(OCC(=O)NCC3CCC(C(c4ccccc4)N(C)C)CC3)C2)c(C)c1C (centres unmarked) [Example 44, N-((4-((dimethylamino)(phenyl)methyl)cyclohexyl)methyl)-2-(1-(4-methoxy-2,3,6-trimethylphenylsulfonyl)pyrrolidin-3-yloxy)acetamide] | 22 | 46 |  | 
14 | COc1ccc(S(=O)(=O)N2CCCCC2COCC(=O)NCC2CCC(C(c3cccs3)N(C)C)CC2)cc1 (centres unmarked) [Example 45, N-((4-((dimethylamino)(thiophen-2-yl)methyl)cyclohexyl)methyl)-2-((1-(4-methoxyphenylsulfonyl)piperidin-2-yl)methoxy)acetamide] | 65 | 70 |  | 
15 | COc1ccc(S(=O)(=O)N2CCCCC2CCOCC(=O)NCCC2CCC(C(c3cccs3)N(C)C)CC2)cc1 (centres unmarked) [Example 46, N-(2-(4-((dimethylamino)(thiophen-2-yl)methyl)cyclohexyl)ethyl)-2-(2-(1-(4-methoxyphenylsulfonyl)piperidin-2-yl)ethoxy)acetamide] | 77 | 86 |  | 
16 | COc1ccc(S(=O)(=O)N2Cc3ccccc3CC2COCC(=O)NC2CCC(C(c3cccs3)N(C)C)CC2)cc1 (centres unmarked) [Example 47, N-(4-((dimethylamino)(thiophen-2-yl)methyl)cyclohexyl)-2-((2-(4-methoxyphenylsulfonyl)-1,2,3,4-tetrahydroisoquinolin-3-yl)methoxy)acetamide] | 36 | 24 |  | 
17 | COc1ccc(S(=O)(=O)N2Cc3ccccc3CC2COCC(=O)NCCC2CCC(C(c3cccs3)N(C)C)CC2)cc1 (centres unmarked) [Example 48, N-(2-(4-((dimethylamino)(thiophen-2-yl)methyl)cyclohexyl)ethyl)-2-((2-(4-methoxyphenylsulfonyl)-1,2,3,4-tetrahydroisoquinolin-3-yl)methoxy)acetamide] | 22 | 33 |  | 
18 | COc1ccc(S(=O)(=O)N2CCCCC2COCC(=O)NCC2CCC(C(c3cccs3)N(C)C)CC2)c(OC)c1 (centres unmarked) [Example 49, 2-((1-(2,4-dimethoxyphenylsulfonyl)piperidin-2-yl)methoxy)-N-((4-((dimethylamino)(thiophen-2-yl)methyl)cyclohexyl)methyl)acetamide] | 23 | 2 |  | 
19 | COc1cc(C)c(S(=O)(=O)N(C)CCOCC(=O)NCCC2CCC(C(c3cccs3)N(C)C)CC2)c(C)c1C (centres unmarked) [Example 52, N-(2-(4-((dimethylamino)(thiophen-2-yl)methyl)cyclohexyl)ethyl)-2-(2-(4-methoxy-N,2,3,6-tetramethylphenylsulfonamido)ethoxy)acetamide] | 53 | 103 |  | 
20 | CN(C)C(c1ccccc1)C1CCC(CNC(=O)COCCN(C)S(=O)(=O)c2ccc(OC(F)(F)F)cc2)CC1 (centres unmarked) [Example 53, N-((4-((dimethylamino)(phenyl)methyl)cyclohexyl)methyl)-2-(2-(N-methyl-4-(trifluoromethoxy)phenylsulfonamido)ethoxy)acetamide] | 41 | 19 |  | 
21 | CN(C)C(c1cccs1)C1CCC(CNC(=O)COC2CCN(S(=O)(=O)c3ccc(Cl)cc3)C2)CC1 (centres unmarked) [Example 54, 2-(1-(4-chlorophenylsulfonyl)pyrrolidin-3-yloxy)-N-((4-((dimethylamino)(thiophen-2-yl)methyl)cyclohexyl)methyl)acetamide] | -20 | 10 |  | 
22 | CN(C)C(c1cccs1)C1CCC(CNC(=O)COCCN(C)S(=O)(=O)c2ccc(Cl)cc2)CC1 (centres unmarked) [Example 55, 2-(2-(4-chloro-N-methylphenylsulfonamido)ethoxy)-N-((4-((dimethylamino)(thiophen-2-yl)methyl)cyclohexyl)methyl)acetamide] | 34 | 11 |  | 
